pIC50: −log10 of the molar value. Where two headings read alike, the source gives them in different places.
Target: T1, P2X7 receptor (Homo sapiens, UniProt Q99572)
T1 construct: endogenous in cells; host or cells: THP-1 cells differentiated with LPS and IFN-γ
T1 sequence (Q99572 1-595): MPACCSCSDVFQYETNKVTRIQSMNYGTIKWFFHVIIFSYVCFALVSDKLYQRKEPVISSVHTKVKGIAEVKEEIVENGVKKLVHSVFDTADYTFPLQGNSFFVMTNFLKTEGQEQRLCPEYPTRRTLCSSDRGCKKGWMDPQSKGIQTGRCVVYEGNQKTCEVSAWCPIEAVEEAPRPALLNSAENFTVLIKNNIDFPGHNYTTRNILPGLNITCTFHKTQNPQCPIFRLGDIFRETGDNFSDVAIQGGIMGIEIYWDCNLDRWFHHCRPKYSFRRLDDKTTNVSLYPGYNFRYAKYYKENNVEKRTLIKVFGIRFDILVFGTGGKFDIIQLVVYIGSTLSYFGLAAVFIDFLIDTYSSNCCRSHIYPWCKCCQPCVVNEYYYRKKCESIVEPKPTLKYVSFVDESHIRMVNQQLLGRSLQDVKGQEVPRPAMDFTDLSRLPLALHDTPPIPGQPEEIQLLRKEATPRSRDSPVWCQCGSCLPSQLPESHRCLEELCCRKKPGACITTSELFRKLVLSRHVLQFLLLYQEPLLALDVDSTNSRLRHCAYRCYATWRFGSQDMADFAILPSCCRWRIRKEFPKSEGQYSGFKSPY
Assay: IL-1β release assay in differentiated THP-1 cells stimulated with BzATP (Example 9)
Type: cell-based
Conditions: for inhibition at 0.1 µM: 0.1 μM concentration; for inhibition at 0.1 µM / inhibition at 0.3 µM: read-out: IL-1β % Inhib. @ 0.3 or 0.1 μM; for inhibition at 0.3 µM: 0.3 μM concentration; for pIC50: read-out: IL-1β IC50
Method: The cells are then pretreated for 30 minutes with the compound of interest at the appropriate concentration in RPMI media containing 100 IU/mL penicillin, 100 ug/mL streptomycin. […] 30 uL of cell supernatant is then collected and IL-1β levels determined via ELISA (R&D systems Cat. # HSLB50) according to manufacturer's recommendations using the Tecan Safire plate reader. Background adjusted IL-1β levels of drug treated and non-treated cells are used to calculate the percent inhibition.
The compounds set forth in Table 1 were tested for activity in a cellular model as described herein. […] Measurements were made and IC50 values, presented in Table 2, below, were determined by fitting the data to a four parameter logistic equation using GraphPad Prism software (GraphPad Software, Inc). The equation may be expressed by the following formula:
Y=Bottom+(Top-Bottom)/(1+10̂((Log EC50−X)*HillSlope))
Where X is the logarithm of concentration, Y is the response and Y starts at Bottom and goes to Top with a sigmoid shape.

inhibition at 0.1 µM	inhibition at 0.3 µM	pIC50 (four parameter logistic fit)	SMILES	IC50 (IL-1β IC50 (nM), four parameter logistic fit)
0 to 25%	–	–	COc1ccc(OC)c(CC(=O)Nc2cccc3c(=O)n(-c4cc(C)on4)ccc23)c1 [ID 728]	–
0 to 25%	–	–	CCOC(=O)N1CCC(n2ccc3c(NC(=O)CCCc4ccccc4)cccc3c2=O)CC1 [ID 788]	–
0 to 25%	–	–	CCOC(=O)N1CCC(n2ccc3c(NC(=O)c4ccc(Cl)cc4Cl)cccc3c2=O)CC1 [ID 762]	–
–	> 76%	7.30	Cc1ncccc1-n1ccc2c(NC(=O)Cc3ccc(Cl)cc3F)cccc2c1=O [ID 859]	–
0 to 25%	–	–	CCOC(=O)N1CCC(n2ccc3c(NC(=O)c4ccc(OC)cc4C)cccc3c2=O)CC1 [ID 749]	–
0 to 25%	–	–	CCOC(=O)N1CCC(n2ccc3c(NC(=O)Cc4ccccc4OCC)cccc3c2=O)CC1 [ID 805]	–
–	51 to 75%	6.61	Cc1ccncc1-n1ccc2c(NC(=O)Cc3ccc(C(F)(F)F)cc3)cccc2c1=O [ID 853]	–
0 to 25%	–	–	CCOC(=O)N1CCC(n2ccc3c(NC(=O)c4cc(C)ccc4C)cccc3c2=O)CC1 [ID 767]	–
–	> 76%	7.50	C[C@H](C(=O)Nc1cccc2c(=O)n(C3CC3)ccc12)c1ccc(Cl)cc1 [ID 894]	–
0 to 25%	–	–	COc1ccccc1CCC(=O)Nc1cccc2c(=O)n(-c3cc(C)on3)ccc12 [ID 724]	–
–	> 76%	7.50	O=C(Cc1ccc(Cl)c(Cl)c1)Nc1cccc2c(=O)n([C@H]3CCNC3)ccc12 [ID 822]	–
–	> 76%	7.84	O=C(Cc1ccc(Cl)cc1F)Nc1cccc2c(=O)n(C3CCC3)ccc12 [ID 888]	–
–	> 76%	7.85	CC(C(=O)Nc1cccc2c(=O)n(-c3cc[nH]n3)ccc12)c1ccc(Cl)c(C(F)(F)F)c1 (centres unmarked) [ID 839]	–
–	> 76%	7.48	Cc1ncccc1-n1ccc2c(NC(=O)Cc3ccc(Cl)c(F)c3)cccc2c1=O [ID 858]	–
0 to 25%	–	–	CCOC(=O)N1CCC(n2ccc3c(NC(=O)Cc4cccc(C)c4)cccc3c2=O)CC1 [ID 784]	–
–	0 to 25%	6.40	O=C(CC1(O)CCCCCC1)Nc1cccc2c(=O)n([C@H]3CCNC3)ccc12 [ID 849]	–
–	> 76%	8.39	O=C(CC12CC3CC(CC(C3)C1)C2)Nc1cccc2c(=O)n(-c3cccnc3Oc3ccccc3F)ccc12 [ID 714]	–
0 to 25%	–	–	CCOC(=O)N1CCC(n2ccc3c(NC(=O)CC4C[C@@H]5CC[C@H]4C5)cccc3c2=O)CC1 (some centres unmarked) [ID 795]	–
0 to 25%	–	–	CCOC(=O)N1CCC(n2ccc3c(NC(=O)c4cc(Cl)ccc4Cl)cccc3c2=O)CC1 [ID 763]	–
0 to 25%	–	–	COc1ccc(CCC(=O)Nc2cccc3c(=O)n(-c4cc(C)on4)ccc23)cc1 [ID 725]	–
0 to 25%	–	–	CCOC(=O)N1CCC(n2ccc3c(NC(=O)c4cccc(C)c4Cl)cccc3c2=O)CC1 [ID 808]	–
> 76%	–	–	Cc1cc(-n2ccc3c(NC(=O)CC4CC5CCC4C5)cccc3c2=O)no1 (centres unmarked) [ID 735]	–
0 to 25%	–	–	CCOC(=O)N1CCC(n2ccc3c(NC(=O)Cc4ccc(C)cc4)cccc3c2=O)CC1 [ID 787]	–
0 to 25%	–	–	CCOC(=O)N1CCC(n2ccc3c(NC(=O)c4ccc(-c5ccccc5)o4)cccc3c2=O)CC1 [ID 752]	–
–	> 76%	7.12	Cc1ncccc1-n1ccc2c(NC(=O)Cc3ccc(F)c(Cl)c3)cccc2c1=O [ID 857]	–
–	0 to 25%	6.04	CC(C(=O)Nc1cccc2c(=O)n(C3CCNCC3)ccc12)c1ccc(Cl)cc1 (centres unmarked) [ID 817]	–

inhibition at 0.1 µM	inhibition at 0.3 µM	pIC50 (four parameter logistic fit)	SMILES	IC50 (IL-1β IC50 (nM), four parameter logistic fit)
0 to 25%	–	–	CCOC(=O)N1CCC(n2ccc3c(NC(=O)CCc4ccc(OC)cc4)cccc3c2=O)CC1 [ID 776]	–
–	> 76%	7.63	O=C(Cc1ccc(Cl)c(Cl)c1)Nc1cccc2c(=O)n(C3CCC3)ccc12 [ID 898]	–
0 to 25%	–	–	CCOC(=O)N1CCC(n2ccc3c(NC(=O)Cc4cc(C)ccc4C)cccc3c2=O)CC1 [ID 755]	–
0 to 25%	–	–	CCOC(=O)N1CCC(n2ccc3c(NC(=O)Cc4ccc(OC)c(OC)c4)cccc3c2=O)CC1 [ID 783]	–
0 to 25%	–	–	CCOC(=O)N1CCC(n2ccc3c(NC(=O)c4cccc(C)c4C)cccc3c2=O)CC1 [ID 765]	–
–	> 76%	7.55	O=C(Cc1cccc(C(F)(F)F)c1F)Nc1cccc2c(=O)n(-c3cccnc3F)ccc12 [ID 874]	–
–	> 76%	7.36	Cc1ncccc1-n1ccc2c(NC(=O)Cc3ccc(Cl)c(Cl)c3)cccc2c1=O [ID 869]	–
0 to 25%	–	–	CCOC(=O)N1CCC(n2ccc3c(NC(=O)C4C[C@@H]5CC[C@H]4C5)cccc3c2=O)CC1 (some centres unmarked) [ID 803]	–
–	> 76%	7.69	O=C(Cc1cccc(C(F)(F)F)c1F)Nc1cccc2c(=O)n(C3CCC3)ccc12 [ID 886]	–
–	> 76%	7.37	Cc1ccncc1-n1ccc2c(NC(=O)Cc3cccc(C(F)(F)F)c3F)cccc2c1=O [ID 852]	–
0 to 25%	–	–	CCOC(=O)N1CCC(n2ccc3c(NC(=O)CCc4ccccc4Cl)cccc3c2=O)CC1 [ID 758]	–
0 to 25%	–	–	Cc1cc(-n2ccc3c(NC(=O)c4cccc(C)c4Cl)cccc3c2=O)no1 [ID 743]	–
0 to 25%	–	–	CCOC(=O)N1CCC(n2ccc3c(NC(=O)Cc4ccc(OC)cc4OC)cccc3c2=O)CC1 [ID 804]	–
–	> 76%	7.97	O=C(CC12CC3CC(CC(C3)C1)C2)Nc1cccc2c(=O)n(-c3ccc(Oc4c(Cl)cccc4Cl)nc3)ccc12 [ID 713]	–
–	> 76%	7.39	Cc1ncccc1-n1ccc2c(NC(=O)Cc3ccc(F)c(F)c3F)cccc2c1=O [ID 867]	–
0 to 25%	–	–	Cc1cc(-n2ccc3c(NC(=O)c4cccc5c4OCCO5)cccc3c2=O)no1 [ID 736]	–
–	> 76%	7.24	O=C(CC12CC3CC(CC(C3)C1)C2)Nc1cccc2c(=O)n(-c3cnc4ccccc4c3)ccc12 [ID 706]	–
0 to 25%	–	–	CCOC(=O)N1CCC(n2ccc3c(NC(=O)Cc4cccc(OC)c4)cccc3c2=O)CC1 [ID 782]	–
–	> 76%	8.36	O=C(Cc1ccc(F)c(Cl)c1)Nc1cccc2c(=O)n(C3CC3)ccc12 [ID 881]	–
0 to 25%	–	–	CCOC(=O)N1CCC(n2ccc3c(NC(=O)c4cc(Cl)cc(Cl)c4)cccc3c2=O)CC1 [ID 768]	–
–	> 76%	7.91	CC(C(=O)Nc1cccc2c(=O)n(-c3cc[nH]n3)ccc12)C1CCCCCC1 (centres unmarked) [ID 843]	–
0 to 25%	–	–	CCOc1cccc(C(=O)Nc2cccc3c(=O)n(-c4cc(C)on4)ccc23)c1 [ID 717]	–
0 to 25%	–	–	CCOC(=O)N1CCC(n2ccc3c(NC(=O)Cc4cc(OC)ccc4OC)cccc3c2=O)CC1 [ID 780]	–
–	> 76%	6.90	O=C(Cc1ccc(Cl)c(Cl)c1)Nc1cccc2c(=O)n(C3CCNC3)ccc12 (centres unmarked) [ID 815]	–
26 to 50%	–	–	CCOC(=O)N1CCC(n2ccc3c(NC(=O)c4ccc(C(C)(C)C)cc4)cccc3c2=O)CC1 [ID 773]	–
0 to 25%	–	–	Cc1cc(-n2ccc3c(NC(=O)c4cc5ccccc5o4)cccc3c2=O)no1 [ID 734]	–

SMILES	inhibition at 0.1 µM	inhibition at 0.3 µM	pIC50 (four parameter logistic fit)	IC50 (IL-1β IC50 (nM), four parameter logistic fit)
O=C(Cc1ccc(Cl)c(C(F)(F)F)c1)Nc1cccc2c(=O)n([C@H]3CCNC3)ccc12 [ID 836]	–	–	7.80	–
O=C(CC12CC3CC(CC(C3)C1)C2)Nc1cccc2c(=O)n(C3CN4CCC3CC4)ccc12 (centres unmarked) [ID 850]	–	> 76%	–	1.88 nM
